Results reported in PMC5833389 (Oncogenesis, 2018).
Values joined by “and” are separate entries in the source; they are usually repeats but may differ in a detail not shown here. Equal entries are not always repeated. Where two headings read alike, the source gives them in different places.

Legend:
HCC-461 lung xenograft = assay: Subcutaneous xenograft efficacy; type: in vivo, mice
Protocol: (§1) For efficacy studies, 1 × 10^7 MIA PaCa-2 or 1 × 10^6 BxPC-3 cells (with Matrigel® 50:50) were injected subcutaneously into the right flank of female BomTac:NMRI-Foxn1^nu mice (age 6 weeks, 24-30 g; Taconic, Denmark). These two and the following tumor models were established from adherently grown cells which were either subcutaneously injected in PBS (LoVo, SW480, A-498, Calu-6, NCI-H2122, A549, SK-OV-3, TOV-21G, AsPC-1, PC-3) or were injected with Matrigel (HCC-461, A2780, PANC-1 and Hs 746 T). For the Caki-1 tumor model tumor fragments were passaged in mice. Mice were randomized according to tumor volume when tumors had reached diameters of 6–8 mm. […] Natrosol-treated animals served as vehicle controls (n = 10). Tumor diameters were measured three times weekly using a caliper and volumes were calculated according to the formula “tumor volume = length × diameter^2 × π/6”. Mice were inspected daily for abnormalities and body weight was determined three times weekly. Animals were euthanized at the end of the study or prematurely, based on criteria including weight loss exceeding 20%, tumor necrosis or tumor volumes exceeding 1500 mm^3.
(§2) Statistical evaluation was performed using SAS 8.2 (SAS Institute, Cary, NC, USA) and Proc StatXact (Cytel Software, Cambridge, MA, USA).
(§3) where Td and Cd denote the median of the tumor volume in the treatment group and the control group at day d, respectively. A one-sided increasing Wilcoxon test was applied to compare each experimental group with the vehicle control, the p values were adjusted for multiple comparisons according to Bonferroni–Holm. The level of significance was fixed at α = 5%. An adjusted p value of <0.05 was considered to show a significant difference between groups.

[1] = system: Hs 746T stomach xenograft; assay: Subcutaneous xenograft efficacy; type: in vivo, mice
Protocol: as §1, §2, §3

A-498 kidney xenograft = assay: Subcutaneous xenograft efficacy; type: in vivo, mice
Protocol: as §1, §2, §3

Calu-6 lung xenograft = assay: Subcutaneous xenograft efficacy; type: in vivo, mice
Protocol: as §1, §2, §3

[2] = system: NCI-H2122 lung carcinoma xenograft; assay: Subcutaneous xenograft efficacy; type: in vivo, mice
Protocol: as §1, §2, §3

[3] = system: LoVo colon/rectum xenograft; assay: Subcutaneous xenograft efficacy; type: in vivo, mice
Protocol: as §1, §2, §3

[4] = system: SK-OV-3 ovarian carcinoma xenograft; assay: Subcutaneous xenograft efficacy; type: in vivo, mice
Protocol: as §1, §2, §3

[5] = system: PC-3 prostate carcinoma xenograft; assay: Subcutaneous xenograft efficacy; type: in vivo, mice
Protocol: as §1, §2, §3

A2780 ovary xenograft = assay: Subcutaneous xenograft efficacy; type: in vivo, mice
Protocol: as §1, §2, §3

[6] = system: BxPC-3 pancreas adenocarcinoma xenograft; assay: Subcutaneous xenograft efficacy; type: in vivo, mice; details: BxPC-3, 50 mg/kg
Protocol: as §1, §2, §3

[7] = system: AsPC-1 pancreas xenograft; assay: Subcutaneous xenograft efficacy; type: in vivo, mice
Protocol: as §1, §2, §3

A549 lung xenograft = assay: Subcutaneous xenograft efficacy; type: in vivo, mice
Protocol: as §1, §2, §3

[8] = system: PANC-1 pancreas xenograft; assay: Subcutaneous xenograft efficacy; type: in vivo, mice
Protocol: as §1, §2, §3

[9] = system: MIA PaCa-2 pancreas adenocarcinoma xenograft; assay: Subcutaneous xenograft efficacy; type: in vivo, mice
Protocol: as §1, §2, §3

TOV-21G ovary xenograft = assay: Subcutaneous xenograft efficacy; type: in vivo, mice
Protocol: as §1, §2, §3

[10] = system: SW480 colon carcinoma xenograft; assay: Subcutaneous xenograft efficacy; type: in vivo, mice
Protocol: as §1, §2, §3

Caki-1 kidney xenograft = assay: Subcutaneous xenograft efficacy; type: in vivo, mice
Protocol: as §1, §2, §3

PTK2B/PYK2 [11] = target: T1, PTK2B/PYK2 (Homo sapiens, UniProt Q14289); assay: PYK2 kinase assay, Z'-LYTE (FRET); type: biochemical
T1 construct: purchased Invitrogen/Life Technologies
T1 sequence (Q14289 whole entry): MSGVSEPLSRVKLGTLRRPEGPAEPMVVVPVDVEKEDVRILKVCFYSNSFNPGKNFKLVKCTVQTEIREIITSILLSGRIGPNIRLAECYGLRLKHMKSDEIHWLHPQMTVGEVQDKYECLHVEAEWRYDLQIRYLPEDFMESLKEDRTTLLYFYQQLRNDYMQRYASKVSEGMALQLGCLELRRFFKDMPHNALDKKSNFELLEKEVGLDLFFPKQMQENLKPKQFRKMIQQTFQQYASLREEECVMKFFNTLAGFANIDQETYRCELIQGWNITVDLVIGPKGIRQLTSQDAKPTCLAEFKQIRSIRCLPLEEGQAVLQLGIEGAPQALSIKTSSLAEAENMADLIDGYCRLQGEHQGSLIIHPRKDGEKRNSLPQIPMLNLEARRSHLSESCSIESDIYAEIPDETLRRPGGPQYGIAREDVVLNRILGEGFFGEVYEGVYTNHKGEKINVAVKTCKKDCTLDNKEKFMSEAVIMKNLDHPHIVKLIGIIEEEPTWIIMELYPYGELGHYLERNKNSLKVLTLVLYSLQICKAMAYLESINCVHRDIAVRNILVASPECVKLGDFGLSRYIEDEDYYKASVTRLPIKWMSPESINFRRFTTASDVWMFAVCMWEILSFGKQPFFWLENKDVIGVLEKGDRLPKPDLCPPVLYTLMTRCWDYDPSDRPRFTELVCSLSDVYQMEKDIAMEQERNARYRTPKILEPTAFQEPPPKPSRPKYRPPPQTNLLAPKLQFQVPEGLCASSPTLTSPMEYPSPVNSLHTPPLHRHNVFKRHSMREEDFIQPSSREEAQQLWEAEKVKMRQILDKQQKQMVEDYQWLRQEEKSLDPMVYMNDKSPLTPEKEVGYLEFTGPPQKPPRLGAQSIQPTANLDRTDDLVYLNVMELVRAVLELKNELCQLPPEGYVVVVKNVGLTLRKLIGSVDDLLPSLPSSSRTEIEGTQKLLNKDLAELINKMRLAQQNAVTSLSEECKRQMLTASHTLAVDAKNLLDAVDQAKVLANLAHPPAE
Protocol: (§4) IC50 values on FAK and PYK2 were determined using the DELFIA® format, using kinase proteins obtained from Invitrogen (#PV3832, #PV4567) and biotinylated poly(Glu,Tyr) as substrate. Incubation in the presence of test compound was followed by detection of phosphorylated substrate using streptavidin-coated plates and Eu-N1 anti-phospho-Tyr PT66 antibody (#AD0040, VICTOR™ reader, both Perkin Elmer). Data were analyzed using GraphPad Prism. […] Data was fitted by iterative calculation using a sigmoidal curve analysis with variable Hill slope. In independent assays, IC50 values were determined using Z'-LYTE® technology, which is based on FRET (Invitrogen/Life Technologies).

FES = target: T2, FES (Homo sapiens, UniProt P07332); assay: FES kinase assay, Z'-LYTE; type: biochemical
T2 construct: purchased Invitrogen/Life Technologies
T2 sequence (P07332 whole entry): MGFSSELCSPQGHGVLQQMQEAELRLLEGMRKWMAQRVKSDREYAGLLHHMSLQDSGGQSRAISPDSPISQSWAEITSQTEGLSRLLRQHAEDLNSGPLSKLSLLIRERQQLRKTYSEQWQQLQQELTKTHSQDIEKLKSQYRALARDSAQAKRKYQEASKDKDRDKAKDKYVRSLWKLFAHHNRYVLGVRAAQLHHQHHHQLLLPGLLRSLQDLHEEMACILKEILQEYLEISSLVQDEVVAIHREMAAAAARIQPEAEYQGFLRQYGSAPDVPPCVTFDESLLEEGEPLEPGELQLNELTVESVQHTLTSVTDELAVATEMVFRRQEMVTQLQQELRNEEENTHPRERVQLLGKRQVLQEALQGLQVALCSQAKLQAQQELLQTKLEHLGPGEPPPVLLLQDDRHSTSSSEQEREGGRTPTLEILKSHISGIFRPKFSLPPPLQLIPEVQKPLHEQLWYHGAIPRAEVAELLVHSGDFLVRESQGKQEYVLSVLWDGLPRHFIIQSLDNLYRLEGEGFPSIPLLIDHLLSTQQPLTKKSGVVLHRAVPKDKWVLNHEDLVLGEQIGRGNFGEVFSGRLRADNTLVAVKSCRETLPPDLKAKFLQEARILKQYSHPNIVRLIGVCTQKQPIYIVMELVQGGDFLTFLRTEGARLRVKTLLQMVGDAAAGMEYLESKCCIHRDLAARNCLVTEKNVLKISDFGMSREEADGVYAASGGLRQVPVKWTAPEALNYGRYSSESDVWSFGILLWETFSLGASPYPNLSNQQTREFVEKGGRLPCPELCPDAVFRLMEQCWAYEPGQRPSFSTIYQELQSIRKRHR
Protocol: as §4, with “Technologies). Selectivity was determined on the Invitrogen kinase panel at 1 µmol/L.” for “Technologies).”

PC-3 cells [12] = assay: Proliferation assay, adherent monolayer, alamarBlue; type: cell-based, human; details: Homo sapiens, PC-3, adherent monolayers
Protocol: PC-3 cells were incubated with compounds for 5 days at 37 °C/5% CO2, stained with alamarBlue® and fluorescence was determined (544 nm/590 nm). Data were analyzed as described above.

[13] = Drug concentrations in plasma and tumor of PC-3 tumor-bearing mice; type: in vivo; details: BomTac:NMRI-Foxn1^nu, mouse; for concentration at 24 h: oral
From the text: (§5) Plasma and homogenized tumor samples were extracted and analyzed by LC-MS. Detection was at unit resolution with a MRM 589.2/474.8. All calibration and QC samples were with ±20% (p.o.) and ±30% (i.v.) of the nominal value in the linear range of the calibration fitted with a linear regression and 1/x^2 weighting.

NCI-H2110 lung xenograft = assay: Subcutaneous xenograft efficacy; type: in vivo, mice
Protocol: as §2, §3

PAK7 = target: T3, PAK7 (Homo sapiens, UniProt Q9P286); assay: PAK7 kinase assay, Z'-LYTE; type: biochemical
T3 construct: purchased Invitrogen/Life Technologies
T3 sequence (Q9P286 whole entry): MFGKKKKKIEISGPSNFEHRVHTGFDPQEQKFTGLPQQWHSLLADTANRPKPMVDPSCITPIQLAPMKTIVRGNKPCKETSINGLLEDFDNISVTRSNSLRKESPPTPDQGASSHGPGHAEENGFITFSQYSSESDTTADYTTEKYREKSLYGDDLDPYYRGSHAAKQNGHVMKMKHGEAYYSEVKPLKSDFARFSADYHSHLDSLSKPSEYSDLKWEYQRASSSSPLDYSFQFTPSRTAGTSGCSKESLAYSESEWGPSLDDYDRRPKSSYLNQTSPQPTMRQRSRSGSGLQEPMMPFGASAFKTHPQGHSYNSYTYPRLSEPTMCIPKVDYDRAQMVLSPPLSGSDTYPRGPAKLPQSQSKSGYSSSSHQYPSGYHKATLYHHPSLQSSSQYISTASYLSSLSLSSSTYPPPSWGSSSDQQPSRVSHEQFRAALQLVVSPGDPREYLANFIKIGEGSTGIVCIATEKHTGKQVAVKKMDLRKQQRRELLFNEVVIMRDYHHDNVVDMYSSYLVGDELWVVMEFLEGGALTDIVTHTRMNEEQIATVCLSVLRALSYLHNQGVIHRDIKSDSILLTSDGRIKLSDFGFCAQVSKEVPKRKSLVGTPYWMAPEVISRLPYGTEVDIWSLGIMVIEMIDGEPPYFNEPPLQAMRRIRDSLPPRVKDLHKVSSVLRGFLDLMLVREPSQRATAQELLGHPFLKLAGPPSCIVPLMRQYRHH
Protocol: as §4, with “Technologies). Selectivity was determined on the Invitrogen kinase panel at 1 µmol/L.” for “Technologies).”

FER = target: T4, FER (Homo sapiens, UniProt P16591); assay: FER kinase assay, Z'-LYTE; type: biochemical
T4 construct: purchased Invitrogen/Life Technologies
T4 sequence (P16591 whole entry): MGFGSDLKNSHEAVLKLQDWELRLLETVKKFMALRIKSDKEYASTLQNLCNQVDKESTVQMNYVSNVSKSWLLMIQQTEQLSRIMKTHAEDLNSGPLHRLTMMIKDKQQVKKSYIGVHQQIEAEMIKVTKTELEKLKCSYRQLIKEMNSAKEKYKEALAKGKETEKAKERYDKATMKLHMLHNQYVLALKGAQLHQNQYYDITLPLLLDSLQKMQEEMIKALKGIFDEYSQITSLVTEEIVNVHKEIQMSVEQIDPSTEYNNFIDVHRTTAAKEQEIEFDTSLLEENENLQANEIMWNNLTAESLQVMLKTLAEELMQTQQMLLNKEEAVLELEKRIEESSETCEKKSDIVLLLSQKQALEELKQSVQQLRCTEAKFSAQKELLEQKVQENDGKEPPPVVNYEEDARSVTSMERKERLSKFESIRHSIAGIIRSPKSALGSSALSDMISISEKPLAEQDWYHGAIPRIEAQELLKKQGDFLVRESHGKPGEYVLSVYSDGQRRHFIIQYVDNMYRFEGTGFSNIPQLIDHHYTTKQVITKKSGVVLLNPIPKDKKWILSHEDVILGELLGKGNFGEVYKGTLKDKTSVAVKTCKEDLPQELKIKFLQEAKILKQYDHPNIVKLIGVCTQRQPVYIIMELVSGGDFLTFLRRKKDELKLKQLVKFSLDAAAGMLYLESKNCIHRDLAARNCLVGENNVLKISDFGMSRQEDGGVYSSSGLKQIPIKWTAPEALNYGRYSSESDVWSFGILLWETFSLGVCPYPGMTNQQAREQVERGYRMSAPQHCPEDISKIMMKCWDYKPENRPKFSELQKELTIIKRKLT
Protocol: as §4, with “Technologies). Selectivity was determined on the Invitrogen kinase panel at 1 µmol/L.” for “Technologies).”

[14] = Single-dose pharmacokinetics in nude mice; type: in vivo
From the text: as §5

[15] = clinical trials NCT01905111 and NCT01335269; cited from earlier work
[16] = Tolerability of daily oral dosing in nude mice; type: in vivo; details: daily oral doses of 50 mg/kg
Protocol: For efficacy studies, 1 × 10^7 MIA PaCa-2 or 1 × 10^6 BxPC-3 cells (with Matrigel® 50:50) were injected subcutaneously into the right flank of female BomTac:NMRI-Foxn1^nu mice (age 6 weeks, 24-30 g; Taconic, Denmark). […] Mice were randomized according to tumor volume when tumors had reached diameters of 6–8 mm. […] Natrosol-treated animals served as vehicle controls (n = 10). Tumor diameters were measured three times weekly using a caliper and volumes were calculated according to the formula “tumor volume = length × diameter^2 × π/6”. Mice were inspected daily for abnormalities and body weight was determined three times weekly. Animals were euthanized at the end of the study or prematurely, based on criteria including weight loss exceeding 20%, tumor necrosis or tumor volumes exceeding 1500 mm^3.

[17] = system: panel of 243 cancer cell lines; assay: Cancer cell line panel, 2D proliferation (Eurofins Panlabs); type: cell-based, human; details: 2D culture
Protocol: (§6) Drug sensitivity of a panel of human cancer cell lines was tested at Eurofins Panlabs (Bothell, WA, USA). Cells were treated for 72 h, fixed and stained with diaminophenylindole to visualize nuclei and the fluorescence intensity of each well was measured (GE Healthcare IN Cell Analyzer 1000). Relative cell proliferation in compound-treated cultures (signal as percent of control, “POC”) was calculated as follows: POC (t = 72 h) = 100 × fluorescence (compound wells) / fluorescence (control wells). In addition, for each compound-treated culture, the cell count after incubation for 72 h (POC [t = 72 h]) was related to the count at start of treatment (POC [t = 0 h]): POC [t = 0 h] = 100 × fluorescence at t = 0 [control wells]/fluorescence at t = 72 h [control wells]). To calculate concentration–response curves, POC data were analyzed using a four-parameter log-logistic function without upper or lower limitation.

PC-3 = assay: as above; type: cell-based, human; details: PC-3, 2D culture, 72 h
Protocol: as §6

[18] = system: Calu-6 lung adenocarcinoma cells; assay: as above; type: cell-based, human; details: Calu-6, 2D culture, 72 h
Protocol: as §6

PTK2B/PYK2 [19] = target: T1, PTK2B/PYK2; assay: PYK2 kinase assay, DELFIA format; type: biochemical
Protocol: as §4

PC-3 cells [20] = assay: Clonogenic assay in soft agar (anchorage-independent growth); type: cell-based, human; details: Homo sapiens, PC-3, alamarBlue, read-out: Colony formation EC50 PC-3
Protocol: Clonogenic assays were performed using agarose-containing media. Cells were incubated at 37 °C and 5% CO2 for 14 days. alamarBlue® was used to detect colonies of viable cells (530 nm/590 nm). Data analysis was performed as described above.

[21] = female, BomTac:NMRI-Foxn1^nu, mouse, plasma, single oral dose 50 mg/kg

COc1cc(C(=O)NC2CCN(C)CC2)c(F)cc1Nc1ncc(C(F)(F)F)c(Oc2cccc3c2C(=O)N(C)C3)n1 [BI 853520]
Median TGI (HCC-461 lung xenograft; HCC-461, 50 mg/kg once daily per os): 102%
TGI (HCC-461 lung xenograft; HCC-461 xenograft, Supplement Table 3): 102%
TGI ([1]; Hs 746T xenograft, Supplement Table 3): 72%
Median TGI ([1]; Hs 746T, 50 mg/kg once daily per os): 72%
Median TGI (A-498 kidney xenograft; A-498, 50 mg/kg once daily per os): 93%
TGI (A-498 kidney xenograft; A-498 xenograft, Supplement Table 3): 93%
Median TGI (Calu-6 lung xenograft; Calu-6, 50 mg/kg once daily per os): 102%
TGI (Calu-6 lung xenograft; Calu-6 xenograft, Supplement Table 3): 102%
Median TGI ([2]; NCI-H2122, 50 mg/kg once daily per os): 45 (n.s.) % and 45%
TGI ([2]; NCI-H2122 xenograft, Supplement Table 3): 45%
TGI ([3]; LoVo xenograft, Supplement Table 3): 14%
Median TGI ([3]; LoVo, 50 mg/kg once daily per os, 50 mg/kg): 14 (n.s.) % and 14%
Median TGI ([4]; SK-OV-3, 50 mg/kg once daily per os): 57%
TGI ([4]; SK-OV-3 xenograft, Supplement Table 3): 57%
Median TGI ([5]; PC-3, 50 mg/kg once daily per os): 93%
TGI ([5]; PC-3 xenograft, Supplement Table 3): 93%
Median TGI (A2780 ovary xenograft; A2780, 50 mg/kg once daily per os): 89%
TGI (A2780 ovary xenograft; A2780 xenograft, Supplement Table 3): 89%
Median TGI [6]: 29%
Median TGI ([7]; AsPC-1, 50 mg/kg once daily per os): 13 (n.s.) % and 13%
TGI ([7]; AsPC-1 xenograft, Supplement Table 3): 13%
Median TGI (A549 lung xenograft; A549, 50 mg/kg once daily per os): 15 (n.s.) % and 15%
TGI (A549 lung xenograft; A549 xenograft, Supplement Table 3): 15%
Median TGI ([8]; PANC-1, 50 mg/kg once daily per os): 83%
TGI ([8]; PANC-1 xenograft, Supplement Table 3): 83%
TGI ([9]; MIA PaCa-2, 12.5 mg/kg, second independent study): 89%
partial regressions ([9]; MIA PaCa-2, 25 mg/kg once daily): 5 out of 10 tumors
TGI ([9]; MIA PaCa-2, 25 mg/kg once daily, first study): 94%
TGI ([9]; MIA PaCa-2, 25 mg/kg, second independent study): 96%
partial regressions ([9]; MIA PaCa-2, 50 mg/kg once daily): 6 out of 10 tumors
Median TGI ([9]; MIA PaCa-2, 50 mg/kg once daily per os): 104%
TGI ([9]; MIA PaCa-2 xenograft, Supplement Table 3): 104%
TGI (TOV-21G ovary xenograft; TOV-21G xenograft, Supplement Table 3): 93%
Median TGI (TOV-21G ovary xenograft; TOV-21G, 50 mg/kg once daily per os): 93%
Median TGI ([10]; SW480, 50 mg/kg once daily per os): 26 (n.s.) % and 26%
TGI ([10]; SW480 xenograft, Supplement Table 3): 26%
Median TGI (Caki-1 kidney xenograft; Caki-1, 50 mg/kg once daily per os): 66%
TGI (Caki-1 kidney xenograft; Caki-1 xenograft, Supplement Table 3): 66%
IC50 (PTK2B/PYK2 [11]): 2000 nM
IC50 (FES): 1040 nM
EC50 (PC-3 cells [12]): > 3000 nM
concentration at 24 h ([13]; PC-3 tumor tissue, 50 mg/kg p.o. qdx4, 24 h after dose on day 4, PC-3 tumors, read-out: concentration in tumor tissue): 8.9 µM
Tmax ([13]; PC-3 tumor tissue, po, 50 mg/kg p.o. qdx4, day 4, PC-3 tumors, read-out: time of peak level in tumor tissue): 6 h
concentration at 24 h ([13]; plasma, 50 mg/kg p.o. qdx4, 24 h after dose on day 4, read-out: plasma level): 1.3 µM
Sensitivity (NCI-H2110 lung xenograft): moderately sensitive (“moderately sensitive” for statistically significant TGI values of 57–83%)
IC50 (PAK7): > 10000 nM
IC50 (FER): 903 nM
clearance ([14]; BomTac:NMRI-Foxn1^nu, mouse, plasma, single intravenous dose 5 mg/kg, female nude mice): 36 mL/min/kg
MRT ([14]; BomTac:NMRI-Foxn1^nu, mouse, plasma, single intravenous dose 5 mg/kg, female nude mice, read-out: mean residence time): 3 h
Vd ([14]; BomTac:NMRI-Foxn1^nu, mouse, plasma, single intravenous dose 5 mg/kg, female nude mice, read-out: volume of distribution): 6.6 L/kg
bioavailability [14, 21]: 90%
half-life [14, 21]: 5 h
Tmax ([14]; female, BomTac:NMRI-Foxn1^nu, mouse, single oral dose 50 mg/kg, plasma, read-out: time of maximal concentration): 2 h
AUC ([14]; single oral dose 50 mg/kg): 46 µM·h
maximal concentration ([14]; single oral dose 50 mg/kg, plasma): 4.4 µmol/L
oral bioavailability in patients [15]: orally bioavailable
safety profile in patients [15]: favorable safety profile
tolerability (body weight gain, clinical signs) [16]: well tolerated
EC50 ([17]; Homo sapiens, few cell lines with interpretable sigmoid curves): 3 to 30 nM
effect on proliferation, vast majority of cell lines ([17]; concentrations as high as 1 µmol/L): not affected
maximal inhibition of proliferation ([17]; few cell lines with interpretable sigmoid curves): 20–30%
EC50 (PC-3; Homo sapiens): 10 nM
maximal inhibition of proliferation (PC-3): 20%
maximal inhibition of proliferation [18]: 40%
EC50 ([18]; Homo sapiens): 3 nM
IC50 (PTK2B/PYK2 [19]): > 50000 nM
EC50 (PC-3 cells [20]): 3 nM
